Marks after values point to notes of the source that are not given here.
Legend:
[1] = tested on: HepG2 tumour bearing mice; experiment: In vivo therapeutic effect on liver cancer, HepG2 tumour bearing nude mice; design: species or system mouse; conditions: i.p. daily, 1 mg/kg bufalin or 1 ml/kg Huachasu
Procedure: Human hepatocellular carcinoma cells, HepG2, are cultured in DMEM medium supplemented with 10% FBS, 100 U/ml penicillin G, and 100 μg/ml streptomycin in a humidified 5% CO2 atmosphere at 37° C. Male BALB/c nude mice (6-week-aged) are fed in pathogen-free conditions. The bufalin liposome is prepared according to the method of Example 1. Exponentially growing HepG2 cells are collected, and prepared into cell suspension with PBS. 0.2 ml of the cell suspension (2×10^7 cells) is injected subcutaneously into the right back of each mouse. When the tumor grows to 100 mm^3 (about one week), the mice are randomly divided into 4 groups (8 mice for each group), and intraperitoneally injected with 0.9% normal saline (control group), bufalin or bufalin liposome at the same dosage (Example 1, 1 mg/kg, the dosage is the amount of bufalin in liposome, and the actual dosage of liposome is calculated from encapsulation efficiency) and Huachasu injection (1 ml/kg, the dosage is obtained by converting clinically commonly used dosage into mouse administration dosage) respectively every day. […] The tumor volume is calculated according to the formula: V(mm^3)=(maximal diameter×minimal diameter^2)/2. After 14 days, the mice are sacrificed in anesthesia with overdose of pentobarbital sodium, followed by completely stripping the tumor body and weighing, and calculating the tumor inhibition rate by: tumor inhibition rate (%)=(average tumor weight of control group-average tumor weight of administration group)/average tumor weight of control group×100. Data are expressed as X±SEM, and statistically processed via t-test or variance analysis.

[2] = tested on: mice bearing L1210 leukemia; experiment: Therapeutic effect on mice bearing L1210 leukemia; format: in vivo, mouse; conditions: ICR mice, i.p. daily, 1 mg/kg bufalin or 1 ml/kg Huachasu
Procedure: Mouse L1210 leukemia cells are subcultured intraperitoneally in ICR mouse. The bufalin liposome is prepared according to the method of Example 1. Male ICR mice (weight of 20±2 g, 5 mice in each cage) are fed in an animal room under alternative 12-hour illumination and 12-hour darkness at a constant temperature of 25° C. and allowed free access to standard laboratory diet. The mice are inoculated intraperitoneally with 1×10^5 L1210 leukemia cell suspension under sterile condition, and randomly divided into 4 groups (10 mice for each group). After 24 h, each group is intraperitoneally injected with 0.9% normal saline (control group), bufalin or bufalin liposome at the same dosage (obtained by Example 1, 1 mg/kg, the dosage is the amount of bufalin in liposome, and the actual dosage of liposome is calculated from encapsulation efficiency) and Huachasu injection (1 ml/kg, the dosage is obtained by converting clinically commonly used dosage into mouse administration dosage) respectively every day. The survival situations of mice within 35 days are observed and recorded, and the life extension rate is calculated. Life extension rate (%)=(average survival time of administration group/average survival time of control group-1)×100. Data are expressed as X±SEM. Statistical significance (P<0.05) for each variable was estimated by Student's t-test or ANOVA analysis.

[3] = tested on: patient with liver cancer or pancreas cancer; experiment: Clinical tolerance of Huachasu injection (literature, Meng Z. et al.); format: in vivo, human; conditions: worked out from the Huachasu injection dose and its bufalin content
Text: At present, a Huachasu injection, prepared by dissolving Venenum Bufonis in normal saline, has been used for the clinical treatment of cancer in China. It has been reported that the combination of gemcitabine-oxaliplatin with Huachasu can enhance the chemotherapeutic effect in the treatment of patients with advanced gallbladder cancer (Qin T J, et al. World J Gastroenterol. 2008, 14(33):5210-6). […] However, the Huachasu injection is a mixture solution of alkaloids in Venenum Bufonis, and the content of bufalin contained therein is very low due to the poor water solubility of bufalin.

[4] = tested on: colon cancer SW1116 cells; experiment: Growth inhibition on tumor cells (MTT); format: cell-based; conditions: Homo sapiens
Procedure: (§1) The cells of human cervical carcinoma Hela, lung cancer A549, gastric cancer SGC7901, liver cancer HepG2, myeloid leukemia HL-60 and colon cancer SW1116 are cultured in DMEM or RPMI 1640 medium (containing 10% inactived fetal bovine serum, 100 U·ml^−1 penicillin and 100 mg·l^−1 streptomycin) in a humidified 5% CO2 atmosphere at […]. The cells in logarithmic phase are collected, inoculated into 96-well plate at a density of 3×10^3/well (each well of 100 μl), and cultured for 24 h under 37° C., 5% CO2 and saturated humidity condition. A negative control group (culture solution) and administration groups with different concentrations are set up for the test. 1-300 nmol/1 bufalin or bufalin liposome (prepared according to the method of Example 1) is added into each culture well, followed by culturing in an incubator under 37° C., 5% CO2 and saturated humidity for 48 h, adding 20 μl of MTT solution (5 g/l) into each well, culturing for 4 h, and centrifuging. The supernatant was aspirated, and 150 μl dimethyl sulfoxide (DMSO) is added to each well and slightly shaking to dissolve crystal. The OD values are measured at 570 nm by an automatic microplate reader, and the cell growth inhibition rates are calculated according to following formula: cell growth inhibition rate/%=100−(OD value of administration group-OD value of blank control group)/(OD value of control group-OD value of bland control group)×100. IC50 (drug concentration at 50% inhibition on cell proliferation) value is calculated using mathematical method. Data are expressed as X±SEM. Statistical significance (P<0.05) for each variable is estimated by Student's t-test or ANOVA analysis.

[5] = tested on: myeloid leukemia HL-60 cells; experiment: Growth inhibition on tumor cells (MTT); format: cell-based; conditions: Homo sapiens
Procedure: as §1

[6] = tested on: human cervical carcinoma Hela cells; experiment: Growth inhibition on tumor cells (MTT); format: cell-based; conditions: 48 h
Procedure: as §1

liver cancer HepG2 cells = experiment: Growth inhibition on tumor cells (MTT); format: cell-based; conditions: Homo sapiens
Procedure: as §1

lung cancer A549 cells = experiment: Growth inhibition on tumor cells (MTT); format: cell-based; conditions: Homo sapiens
Procedure: as §1

[7] = tested on: gastric cancer SGC7901 cells; experiment: Growth inhibition on tumor cells (MTT); format: cell-based; conditions: Homo sapiens
Procedure: as §1

[8] = Evaluation of acute toxicities in mice (LD50, Bliss method); conditions: mouse, in vivo, ip; male Balb/c mice, intraperitoneal, observed 7 days; dose as amount of bufalin; read-out: half-lethal dose (LD50)
Procedure: Male Balb/c mice (20-25 g) are purchased from the Laboratory Animal Center of Fourth Military Medical University. Bufalin is dissolved with anhydrous ethanol first, and then diluted with normal saline to 0.2 mg/ml (the final concentration of ethanol is below 1%). Bufalin liposome (prepared according to the method of Example 1) is directly dissolved in normal saline to obtain 0.2 mg/ml solution. 10 animals of each group are intraperitoneally injected with bufalin or bufalin liposome at dosages of 0.5, 1, 2, 4 and 6 mg/kg respectively (the dosage is the amount of bufalin in liposome, and the actual dosage of liposome is calculated from encapsulation efficiency). The mortality of mice, the toxic effect and any adverse reactions such as diarrhea, weight loss and behavior change are observed continuously for 7 days. The half-lethal dose (LD50) is calculated using graphical Bliss method.

For `C[C@]12CC[C@H](O)C[C@H]1CC[C@@H]1[C@@H]2CC[C@]2(C)[C@@H](c3ccc(=O)oc3)CC[C@]12O` [bufalin, 3β,14-dihydroxy-5β, 20(22)-bufadienolide], the tumor inhibition rate ([1]; after 14 days, versus control group) was 21.8%, the “Tumor volume (mm^3)” value ([1]; treatment day 0 (prior to administration)) was 410.5 ± 75.3 mm^3 and the “Tumor volume (mm^3)” value ([1]; treatment day 2) was 1055.8 ± 203.0 mm^3. The “Tumor volume (mm^3)” value ([1]; treatment day 4) was 1621.0 ± 303.8 mm^3, the “Tumor volume (mm^3)” value ([1]; treatment day 6) was 2215.9 ± 338.1* mm^3 and the “Tumor volume (mm^3)” value ([1]; treatment day 8) was 2115.7 ± 349.7* mm^3. The “Tumor volume (mm^3)” value ([1]; treatment day 10) was 2565.4 ± 385.2* mm^3, the “Tumor volume (mm^3)” value ([1]; treatment day 12) was 2691.9 ± 407.1* mm^3 and the “Tumor volume (mm^3)” value ([1]; treatment day 14, 1 mg/kg) was 3205.6±711.5 mm^3. The “Tumor volume (mm^3)” value ([1]; treatment day 14, listed as Bufalin, 1 mg/kg) was 3205.6 ± 711.5* mm^3, the “Average survival time” value ([2]; observed 35 days, 1 mg/kg) was 22.8 ± 3.1 days and the “Life extension rate (%)” value ([2]; versus control group) was 36.5%. The “amount of bufalin tolerated by an adult patient every day” value [3] was “up to 2.3 μg”, the inhibition at 0.001 µM ([4]; SW 1116, SW1116, 1 nmol/l, 48 h, read-out: Inhibition rate (%)) was 1.9 ± 0.3% and the inhibition at 0.003 µM ([4]; SW 1116, SW1116, 3 nmol/l, 48 h, read-out: Inhibition rate (%)) was 2.7 ± 0.1%. The inhibition at 0.01 µM ([4]; SW 1116, SW1116, 10 nmol/l, 48 h, read-out: Inhibition rate (%)) was 18 ± 3.9%, the inhibition at 0.03 µM ([4]; SW 1116, SW1116, 30 nmol/l, 48 h, read-out: Inhibition rate (%)) was 42.7 ± 6.3% and the inhibition at 0.1 µM ([4]; SW 1116, SW1116, 100 nmol/l, 48 h, read-out: Inhibition rate (%)) was 73.1 ± 8.8%. The inhibition at 0.3 µM ([4]; SW 1116, SW1116, 300 nmol/l, 48 h, read-out: Inhibition rate (%)) was 99.4 ± 11.6%, the IC50 ([4]; SW 1116, SW1116, 48 h) was 30.6 nM and the inhibition at 0.001 µM ([5]; HL60, 1 nmol/l, 48 h, read-out: Inhibition rate (%)) was 1.6 ± 0.1%. For the same molecule, the inhibition at 0.003 µM ([5]; HL60, 3 nmol/l, 48 h, read-out: Inhibition rate (%)) was 4.4 ± 0.7%, the inhibition at 0.01 µM ([5]; HL60, 10 nmol/l, 48 h, read-out: Inhibition rate (%)) was 33.8 ± 6.1% and the inhibition at 0.03 µM ([5]; HL60, 30 nmol/l, 48 h, read-out: Inhibition rate (%)) was 52.4 ± 8%. It also gave an inhibition at 0.1 µM ([5]; HL60, 100 nmol/l, 48 h, read-out: Inhibition rate (%)) of 88.7 ± 9.8%, an inhibition at 0.3 µM ([5]; HL60, 300 nmol/l, 48 h, read-out: Inhibition rate (%)) of 98 ± 10.2% and an IC50 ([5]; HL60, 48 h) of 21.1 nM. For the same molecule, the inhibition at 0.001 µM ([6]; 1 nmol/l, read-out: Inhibition rate (%)) was 3.8 ± 2%, the inhibition at 0.003 µM ([6]; 3 nmol/l, read-out: Inhibition rate (%)) was 9.6 ± 8.2% and the inhibition at 0.01 µM ([6]; 10 nmol/l, read-out: Inhibition rate (%)) was 33.9 ± 4.5%. For the same molecule, the inhibition at 0.03 µM ([6]; 30 nmol/l, read-out: Inhibition rate (%)) was 56.3 ± 8.2%, the inhibition at 0.1 µM ([6]; 100 nmol/l, read-out: Inhibition rate (%)) was 90.3 ± 10.7% and the inhibition at 0.3 µM ([6]; 300 nmol/l, read-out: Inhibition rate (%)) was 95.1 ± 6.9%. The IC50 [6] was 17.1 nM, the inhibition at 0.001 µM (liver cancer HepG2 cells; HepG2, 1 nmol/l, 48 h, read-out: Inhibition rate (%)) was 5.3 ± 2.2% and the inhibition at 0.003 µM (liver cancer HepG2 cells; HepG2, 3 nmol/l, 48 h, read-out: Inhibition rate (%)) was 6.1 ± 2.3%. For the same molecule, the inhibition at 0.01 µM (liver cancer HepG2 cells; HepG2, 10 nmol/l, 48 h, read-out: Inhibition rate (%)) was 30.2 ± 2.9%, the inhibition at 0.03 µM (liver cancer HepG2 cells; HepG2, 30 nmol/l, 48 h, read-out: Inhibition rate (%)) was 49.8 ± 8.3% and the inhibition at 0.1 µM (liver cancer HepG2 cells; HepG2, 100 nmol/l, 48 h, read-out: Inhibition rate (%)) was 69.8 ± 7.5%. It also gave an inhibition at 0.3 µM (liver cancer HepG2 cells; HepG2, 300 nmol/l, 48 h, read-out: Inhibition rate (%)) of 87.7 ± 9.6%, an IC50 (liver cancer HepG2 cells; HepG2, 48 h) of 33 nM and an inhibition at 0.001 µM (lung cancer A549 cells; A549, 1 nmol/l, 48 h, read-out: Inhibition rate (%)) of 2 ± 0.2%. The inhibition at 0.003 µM (lung cancer A549 cells; A549, 3 nmol/l, 48 h, read-out: Inhibition rate (%)) was 8.5 ± 1%, the inhibition at 0.01 µM (lung cancer A549 cells; A549, 10 nmol/l, 48 h, read-out: Inhibition rate (%)) was 25.3 ± 3.8% and the inhibition at 0.03 µM (lung cancer A549 cells; A549, 30 nmol/l, 48 h, read-out: Inhibition rate (%)) was 44.2 ± 7.1%. It also gave an inhibition at 0.1 µM (lung cancer A549 cells; A549, 100 nmol/l, 48 h, read-out: Inhibition rate (%)) of 52.3 ± 8.3%, an inhibition at 0.3 µM (lung cancer A549 cells; A549, 300 nmol/l, 48 h, read-out: Inhibition rate (%)) of 63.8 ± 7.9% and an IC50 (lung cancer A549 cells; A549, 48 h) of 78.8 nM. For the same molecule, the inhibition at 0.001 µM ([7]; SGC-7901, 1 nmol/l, 48 h, read-out: Inhibition rate (%)) was 3.1 ± 0.5%, the inhibition at 0.003 µM ([7]; SGC-7901, 3 nmol/l, 48 h, read-out: Inhibition rate (%)) was 3.9 ± 0.8% and the inhibition at 0.01 µM ([7]; SGC-7901, 10 nmol/l, 48 h, read-out: Inhibition rate (%)) was 23.7 ± 3.6%. For the same molecule, the inhibition at 0.03 µM ([7]; SGC-7901, 30 nmol/l, 48 h, read-out: Inhibition rate (%)) was 45.9 ± 6.5%, the inhibition at 0.1 µM ([7]; SGC-7901, 100 nmol/l, 48 h, read-out: Inhibition rate (%)) was 85.6 ± 10.2% and the inhibition at 0.3 µM ([7]; SGC-7901, 300 nmol/l, 48 h, read-out: Inhibition rate (%)) was 97.9 ± 11.3%. It also gave an IC50 ([7]; SGC-7901, 48 h) of 23.5 nM and an LD50 at 7 days [8] of 2 mg/kg.

— patent US9814734B2, “Bufalin liposome, preparation method therefor and application thereof” (THE FOURTH MILITARY MEDICAL UNIVERSITY, priority 2012, dated 2017)
